Test systems include 786-0 renal; A549 NSCLC; CAKI-1 renal; HL-60(TB) leukemia; IGROV1 ovarian; OVCAR-5 ovarian; SF-295 CNS; SK-OV-3 ovarian; SR leukemia; PC-3 prostate.
Common to all, as to assay: DTP human tumour cell line panel, 48 h

Each structure is given as a SMILES string. Values joined by “and” are separate entries in the source; they are usually repeats but may differ in a detail not shown here. Identical values can stand only once.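 Step 1: Grow cells in 96-well plates. Step 2: Expose to compound for 48 hours at 5 concentrations. Step 3: Interpolate endpoints linearly; if unreached, use highest concentration. GI50 = concentration required for 50% inhibition of growth. TGI: concentration producing complete growth inhibition.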

For `O=C(O)C(=O)/C=C\c1ccc(Cl)cc1`, the concentration for total growth inhibition (TGI) in the experiment with 786-0 renal, in the experiment with A549 NSCLC, in the experiment on CAKI-1 renal, with HL-60(TB) leukemia, in the experiment with IGROV1 ovarian and in the experiment with OVCAR-5 ovarian was over 100 µM throughout. Moreover, the TGI with SF-295 CNS, in the experiment on SK-OV-3 ovarian and in the experiment with SR leukemia was over 100 µM throughout.
Take `NNC(=S)N/N=C(\c1nc2ccc(Cl)cc2[nH]c1=O)C(O)c1ccc(Cl)cc1Cl` (centres undefined): the TGI in the experiment with 786-0 renal, in the experiment on A549 NSCLC, in the experiment on CAKI-1 renal, with HL-60(TB) leukemia, in the experiment on IGROV1 ovarian and with OVCAR-5 ovarian was over 100 µM throughout. Further, the TGI in the experiment on SF-295 CNS, in the experiment with SK-OV-3 ovarian and with SR leukemia was over 100 µM in each case.
`S=c1sc2ccccc2n1CN1CCN(Cc2ccccc2)CC1`: the TGI in the experiment with 786-0 renal, with A549 NSCLC, with CAKI-1 renal, in the experiment on HL-60(TB) leukemia, with IGROV1 ovarian and with OVCAR-5 ovarian was over 100 µM in each case. Besides, the TGI in the experiment with PC-3 prostate, with SF-295 CNS and in the experiment on SK-OV-3 ovarian was over 100 µM in each case.
Regarding `C=CC[n+]1c(/C=C2\Sc3ccccc3N2C)sc(-c2ccccc2)c1-c1ccccc1`, the GI50 in the experiment with 786-0 renal is 0.419 µM; in the experiment on A549 NSCLC, 0.339 µM; with HL-60(TB) leukemia it was 0.241 µM; in the experiment with IGROV1 ovarian, 0.45 µM; with OVCAR-5 ovarian it was 0.383 µM; in the experiment with PC-3 prostate, 0.264 µM. In addition, the GI50 in the experiment on SF-295 CNS is 0.276 µM; with SK-OV-3 ovarian it was 0.296 µM; in the experiment on SR leukemia it was 0.353 µM. Also, the TGI with 786-0 renal worked out at 11.1 µM; in the experiment on A549 NSCLC, 11 µM; in the experiment on HL-60(TB) leukemia it was 0.665 µM; with IGROV1 ovarian, 13.7 µM; in the experiment with OVCAR-5 ovarian, 12.6 µM; in the experiment with PC-3 prostate, 1.34 µM. In addition, the TGI in the experiment on SF-295 CNS was 0.903 µM; with SK-OV-3 ovarian, 0.92 µM; in the experiment with SR leukemia, 1.87 µM.
For `O=C1C=Cc2cc3ccccc3c3cccc1c23`, the GI50 is 4.29 µM in the experiment on 786-0 renal; 1.43 µM with A549 NSCLC; 2.51 µM in the experiment on CAKI-1 renal; 8.42 µM in the experiment with IGROV1 ovarian; 3.44 µM in the experiment on OVCAR-5 ovarian; 3.47 µM in the experiment with PC-3 prostate. Further, the GI50 is 7.65 µM in the experiment with SF-295 CNS and 19.5 µM in the experiment on SK-OV-3 ovarian. Besides, the TGI in the experiment with 786-0 renal was over 100 µM; in the experiment on A549 NSCLC, 22.8 µM; with CAKI-1 renal, 7.1 µM; in the experiment on IGROV1 ovarian, over 100 µM; in the experiment with OVCAR-5 ovarian it was 27.5 µM; in the experiment on PC-3 prostate, 19.1 µM. For the same compound, the TGI was 35.8 µM in the experiment on SF-295 CNS and over 100 µM in the experiment with SK-OV-3 ovarian.
For the compound `Nc1ncnc2c1ncn2C1OC(CO)C(O)C1O` (centres undefined), the GI50 in the experiment with 786-0 renal was 9.22 µM; in the experiment on A549 NSCLC it was 22.3 µM; with HL-60(TB) leukemia it was 22.9 µM and 105 µM and 13.8 µM; with IGROV1 ovarian, over 450 µM; in the experiment with OVCAR-5 ovarian, > 100 µM and 257 µM and 34.6 µM; in the experiment on PC-3 prostate, 1.44 µM. Further, the GI50 with SF-295 CNS is > 100 µM and 215 µM and 32.6 µM; in the experiment with SK-OV-3 ovarian, > 100 µM and 296 µM and 34 µM. Moreover, the TGI was over 100 µM in the experiment on 786-0 renal; over 388 µM in the experiment with A549 NSCLC; > 100 µM and > 450 µM and 74.9 µM in the experiment with CAKI-1 renal; > 100 µM and 328 µM and 56 µM with HL-60(TB) leukemia; over 450 µM in the experiment on IGROV1 ovarian; over 450 µM in the experiment on OVCAR-5 ovarian. Also, the TGI in the experiment on PC-3 prostate was > 100 µM and 12.8 µM; in the experiment on SF-295 CNS, over 450 µM; with SK-OV-3 ovarian, over 450 µM.
Take `COc1ccc(-c2ccc(/C=N/n3cnn(CN4CCN(C)CC4)c3=S)o2)c([N+](=O)[O-])c1`: the GI50 in the experiment with 786-0 renal was 19.6 µM; in the experiment on A549 NSCLC, 39.5 µM; in the experiment on HL-60(TB) leukemia, 17.7 µM; in the experiment on IGROV1 ovarian it was 54.7 µM; with OVCAR-5 ovarian, 34 µM; with PC-3 prostate it was 39.3 µM. In addition, the GI50 in the experiment on SK-OV-3 ovarian was 36.4 µM; with SR leukemia it was 31.5 µM. In addition, the TGI in the experiment on 786-0 renal was over 100 µM; in the experiment on A549 NSCLC, over 100 µM; in the experiment on HL-60(TB) leukemia it was 49.9 µM; in the experiment with IGROV1 ovarian, over 100 µM; in the experiment on OVCAR-5 ovarian, over 100 µM; in the experiment on PC-3 prostate, over 100 µM. The TGI in the experiment on SK-OV-3 ovarian and in the experiment with SR leukemia was over 100 µM throughout.
On to `COC(=O)c1ccc2c(c1)[n+](=O)c(C(C)=O)c(C(F)(F)F)n2[O-]`, for which the GI50 in the experiment on 786-0 renal is 1.91 µM; with A549 NSCLC it was 1.96 µM; with CAKI-1 renal, 1.94 µM; in the experiment with HL-60(TB) leukemia, 1.94 µM; in the experiment on IGROV1 ovarian it was 1.75 µM; in the experiment on OVCAR-5 ovarian it was 1.67 µM. Moreover, the GI50 was 1.64 µM with PC-3 prostate, 1.33 µM with SF-295 CNS and 2.22 µM in the experiment with SK-OV-3 ovarian. In addition, the TGI in the experiment on 786-0 renal came to 3.37 µM; in the experiment on A549 NSCLC, 3.7 µM; in the experiment with CAKI-1 renal it was 5.07 µM; in the experiment on HL-60(TB) leukemia it was 7.87 µM; in the experiment with IGROV1 ovarian, 3.39 µM; in the experiment on OVCAR-5 ovarian it was 3.11 µM. Further, the results for the TGI with PC-3 prostate, with SF-295 CNS and in the experiment on SK-OV-3 ovarian were 3.63 µM, 2.78 µM and 4.48 µM, respectively.
As to `CC(C)=CCNc1ncnc2c1ncn2C1OC(COP(=O)(O)O)C(O)C1O` (centres undefined), the GI50 with 786-0 renal is 5.82 µM; in the experiment on A549 NSCLC, 7.39 µM; in the experiment on CAKI-1 renal, 3.6 µM; with HL-60(TB) leukemia it was 1.94 µM; in the experiment on IGROV1 ovarian, 11 µM; with OVCAR-5 ovarian it was 32.9 µM. Moreover, the GI50 with PC-3 prostate was 2 µM; with SF-295 CNS it was 5.8 µM; in the experiment with SK-OV-3 ovarian, 4.77 µM. The TGI in the experiment with 786-0 renal was over 79.6 µM; in the experiment on A549 NSCLC, over 100 µM; in the experiment with CAKI-1 renal, over 67.7 µM; in the experiment with HL-60(TB) leukemia, 6.33 µM; in the experiment on IGROV1 ovarian it was over 100 µM; with OVCAR-5 ovarian, over 100 µM. The TGI in the experiment with PC-3 prostate is 8.22 µM; in the experiment on SF-295 CNS, 34 µM; with SK-OV-3 ovarian it was over 100 µM.
For the compound `CC1=NN(C(=O)CC(=O)Nc2ccccc2)C(=O)C1N=Nc1ccc(S(N)(=O)=O)cc1` (centres undefined), the TGI in the experiment on 786-0 renal, in the experiment on A549 NSCLC, with CAKI-1 renal, in the experiment with HL-60(TB) leukemia, in the experiment with IGROV1 ovarian and with OVCAR-5 ovarian was over 100 µM throughout. The TGI in the experiment with SF-295 CNS, with SK-OV-3 ovarian and in the experiment with SR leukemia was over 100 µM in each case.

Values taken from PubChem BioAssay (NCI).
